target: human SPR (Homo sapiens (Human), UniProt P35270); experiment: Evaluation Example 2: Measurement of human SPR inhibitory activity (seven concentrations, sepiapterin absorbance at 420 nm); format: biochemical; settings: Evaluation Example 2, seven concentrations 0.14 nM to 100 nM, 240 minutes at room temperature, read-out: IC50
Procedure, shortened: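 His-tagged full-length human SPR (1-261) was expressed in E. coli and the tag removed. Enzyme at 150 ng/mL in 100 mM Tris-HCl pH 7.5/0.01% BSA was mixed with compound (0.14–100 nM, seven points), 120 μM sepiapterin and 160 μM NADPH, both as added-solution concentrations. After 240 min at room temperature, remaining sepiapterin was read at 420 nm to give percent inhibition.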

Chain of human SPR (P35270 whole entry): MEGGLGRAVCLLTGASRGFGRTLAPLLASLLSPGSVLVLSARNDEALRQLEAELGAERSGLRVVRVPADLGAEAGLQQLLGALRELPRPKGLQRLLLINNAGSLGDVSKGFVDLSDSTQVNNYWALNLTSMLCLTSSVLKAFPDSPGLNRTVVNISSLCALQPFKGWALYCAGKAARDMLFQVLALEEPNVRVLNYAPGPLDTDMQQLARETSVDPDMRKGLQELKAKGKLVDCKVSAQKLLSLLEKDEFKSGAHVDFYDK

| SMILES | IC50 [nM] |
| --- | --- |
| C/C(=C\c1cnn2c(O)c(C(=O)NC3CC3)c(=O)n(CC(C)C)c12)C(=O)N1CCN(C2CC(F)(F)C2)CC1 [Synthesis Example 255, (E)-N-Cyclopropyl-3-(3-(4-(3,3-difluorocyclobutyl)piperazin-1-yl)-2-methyl-3-oxoprop-1-en-1-yl)-7-hydroxy-4-isobutyl-5-oxo-4,5-dihydropyrazolo[1,5-a]pyrimidine-6-carboxamide] | 1.02 |
| C/C(=C\c1cnn2c(O)c(C(=O)NC3CC3)c(=O)n(CC(C)C)c12)C(=O)N1CCC(F)(F)C1 [Synthesis Example 256, (E)-N-Cyclopropyl-3-(3-(3,3-difluoropyrrolidin-1-yl)-2-methyl-3-oxoprop-1-en-1-yl)-7-hydroxy-4-isobutyl-5-oxo-4,5-dihydropyrazolo[1,5-a]pyrimidine-6-carboxamide] | 0.97 |
| C/C(=C\c1cnn2c(O)c(C(=O)NC3CC3)c(=O)n(CC(C)C)c12)C(=O)NC(C)C [Synthesis Example 257, (E)-N-Cyclopropyl-7-hydroxy-4-isobutyl-3-(3-(isopropylamino)-2-methyl-3-oxoprop-1-en-1-yl)-5-oxo-4,5-dihydropyrazolo[1,5-a]pyrimidine-6-carboxamide] | 1.01 |
| C/C(=C\c1cnn2c(O)c(C(=O)NC3CC3)c(=O)n(CC(C)C)c12)C(=O)N(C)CC#N [Synthesis Example 258, (E)-3-(3-((Cyanomethyl)(methyl)amino)-2-methyl-3-oxoprop-1-en-1-yl)-N-cyclopropyl-7-hydroxy-4-isobutyl-5-oxo-4,5-dihydropyrazolo[1,5-a]pyrimidine-6-carboxamide] | 0.74 |
| CC(C)Cn1c(=O)c(C(=O)NC2CC2)c(O)n2ncc(COc3cccnc3)c12 [Synthesis Example 259, N-Cyclopropyl-7-hydroxy-4-isobutyl-5-oxo-3-((pyridin-3-yloxy)methyl)-4,5-dihydropyrazolo[1,5-a]pyrimidine-6-carboxamide] | 0.18 |
| CC(C)Cn1c(=O)c(C(=O)NC2CC2)c(O)n2ncc(COc3ccccc3)c12 [Synthesis Example 260, N-Cyclopropyl-7-hydroxy-4-isobutyl-5-oxo-3-(phenoxymethyl)-4,5-dihydropyrazolo[1,5-a]pyrimidine-6-carboxamide] | 1.27 |
| CC(C)Cn1c(=O)c(C(=O)NC2CC2)c(O)n2ncc(C#N)c12 [Synthesis Example 261, 3-Cyano-N-cyclopropyl-7-hydroxy-4-isobutyl-5-oxo-4,5-dihydropyrazolo[1,5-a]pyrimidine-6-carboxamide] | 2.27 |
| CC(C)Cn1c(=O)c(C(=O)NC2CC2)c(O)n2ncc(CNC(=O)C3CCOCC3)c12 [Synthesis Example 262, N-Cyclopropyl-7-hydroxy-4-isobutyl-5-oxo-3-((tetrahydro-2H-pyran-4-carboxamido)methyl)-4,5-dihydropyrazolo[1,5-a]pyrimidine-6-carboxamide] | 1.01 |
| CC(C)Cn1c(=O)c(C(=O)NC2CC2)c(O)n2ncc(CNC(=O)C3CCC(F)(F)CC3)c12 [Synthesis Example 263, N-Cyclopropyl-3-((4,4-difluorocyclohexane-1-carboxamido)methyl)-7-hydroxy-4-isobutyl-5-oxo-4,5-dihydropyrazolo[1,5-a]pyrimidine-6-carboxamide] | 1.22 |
| CC(C)Cn1c(=O)c(C(=O)NC2CC2)c(O)n2ncc(CC(=O)N3CCOCC3)c12 [Synthesis Example 264, N-Cyclopropyl-7-hydroxy-4-isobutyl-3-(2-morpholino-2-oxoethyl)-5-oxo-4,5-dihydropyrazolo[1,5-a]pyrimidine-6-carboxamide] | 0.95 |
| CC(C)Cn1c(=O)c(C(=O)NC2CC2)c(O)n2ncc(/C=C/C(C)(C)O)c12 [Synthesis Example 265, (E)-N-Cyclopropyl-7-hydroxy-3-(3-hydroxy-3-methylbut-1-en-1-yl)-4-isobutyl-5-oxo-4,5-dihydropyrazolo[1,5-a]pyrimidine-6-carboxamide] | 0.68 |
| CC(C)Cn1c(=O)c(C(=O)NC2CC2)c(O)n2ncc(/C=C/C3=NCC(C)(C)O3)c12 [Synthesis Example 266, (E)-N-Cyclopropyl-3-(2-(5,5-dimethyl-4,5-dihydrooxazol-2-yl)vinyl)-7-hydroxy-4-isobutyl-5-oxo-4,5-dihydropyrazolo[1,5-a]pyrimidine-6-carboxamide] | 1.58 |
| CC(C)Cn1c(=O)c(C(=O)NC2CC2)c(O)n2ncc(/C=C/c3noc(=O)[nH]3)c12 [Synthesis Example 267, (E)-N-Cyclopropyl-7-hydroxy-4-isobutyl-5-oxo-3-(2-(5-oxo-4,5-dihydro-1,2,4-oxadiazol-3-yl)vinyl)-4,5-dihydropyrazolo[1,5-a]pyrimidine-6-carboxamide] | 14.3 |
| Cc1nnc(/C=C/c2cnn3c(O)c(C(=O)NC4CC4)c(=O)n(CC(C)C)c23)s1 [Synthesis Example 268, (E)-N-Cyclopropyl-7-hydroxy-4-isobutyl-3-(2-(5-methyl-1,3,4-thiadiazol-2-yl)vinyl)-5-oxo-4,5-dihydropyrazolo[1,5-a]pyrimidine-6-carboxamide] | 1.04 |
| Cc1nnc(/C=C/c2cnn3c(O)c(C(=O)NC4CC4)c(=O)n(CC(C)C)c23)o1 [Synthesis Example 269, (E)-N-Cyclopropyl-7-hydroxy-4-isobutyl-3-(2-(5-methyl-1,3,4-oxadiazol-2-yl)vinyl)-5-oxo-4,5-dihydropyrazolo[1,5-a]pyrimidine-6-carboxamide] | 1.17 |
| COC(C)(C)Cn1c(=O)c(C(=O)NC2CC2)c(O)n2nc(Br)cc12 [Synthesis Example 270, 2-Bromo-N-cyclopropyl-7-hydroxy-4-(2-methoxy-2-methylpropyl)-5-oxo-4,5-dihydropyrazolo[1,5-a]pyrimidine-6-carboxamide] | 1.16 |
| COC(C)(C)Cn1c(=O)c(C(=O)NC2CC2)c(O)n2nc(-c3cccnc3N)cc12 [Synthesis Example 271, 2-(2-Aminopyridin-3-yl)-N-cyclopropyl-7-hydroxy-4-(2-methoxy-2-methylpropyl)-5-oxo-4,5-dihydropyrazolo[1,5-a]pyrimidine-6-carboxamide] | 1.08 |
| CC(C)(C)Cn1c(=O)c(C(=O)NCC(F)(F)F)c(O)n2nc(Br)cc12 [Synthesis Example 272, 2-Bromo-7-hydroxy-4-neopentyl-5-oxo-N-(2,2,2-trifluoroethyl)-4,5-dihydropyrazolo[1,5-a]pyrimidine-6-carboxamide] | 3.78 |
| CC(C)Cn1c(=O)c(C(=O)NCC(F)(F)F)c(O)n2nc(Br)cc12 [Synthesis Example 273, 2-Bromo-7-hydroxy-4-isobutyl-5-oxo-N-(2,2,2-trifluoroethyl)-4,5-dihydropyrazolo[1,5-a]pyrimidine-6-carboxamide] | 11.6 |
| CC(C)(C)Cn1c(=O)c(C(=O)NC2CC2)c(O)n2nc(CN3CCCCC3)cc12 [Synthesis Example 274, N-Cyclopropyl-7-hydroxy-4-neopentyl-5-oxo-2-(piperidin-1-ylmethyl)-4,5-dihydropyrazolo[1,5-a]pyrimidine-6-carboxamide] | 9.46 |
| COC(C)(C)Cn1c(=O)c(C(=O)NC2CC2)c(O)n2nc(C(N)=O)cc12 [Synthesis Example 275, N6-Cyclopropyl-7-hydroxy-4-(2-methoxy-2-methylpropyl)-5-oxo-4,5-dihydropyrazolo[1,5-a]pyrimidine-2,6-dicarboxamide] | 0.68 |

— patent US20240092784A1, “CONDENSED HETEROCYCLIC COMPOUND” (NISSAN CHEMICAL CORPORATION, priority 2020, published 2024)
